# Test results from ChEMBL document CHEMBL5291721, “A preclinical secondary pharmacology resource illuminates target-adverse drug reaction associations of marketed drugs” (Nat Commun, 2023).
# Legend:
# Adenosine receptor A2a = Adenosine receptor A2a (Homo sapiens, UniProt P29274)
# [1] = biological target: T1, Alpha-2B adrenergic receptor (Homo sapiens, UniProt P18089)
# T1 sequence (P18089 whole entry): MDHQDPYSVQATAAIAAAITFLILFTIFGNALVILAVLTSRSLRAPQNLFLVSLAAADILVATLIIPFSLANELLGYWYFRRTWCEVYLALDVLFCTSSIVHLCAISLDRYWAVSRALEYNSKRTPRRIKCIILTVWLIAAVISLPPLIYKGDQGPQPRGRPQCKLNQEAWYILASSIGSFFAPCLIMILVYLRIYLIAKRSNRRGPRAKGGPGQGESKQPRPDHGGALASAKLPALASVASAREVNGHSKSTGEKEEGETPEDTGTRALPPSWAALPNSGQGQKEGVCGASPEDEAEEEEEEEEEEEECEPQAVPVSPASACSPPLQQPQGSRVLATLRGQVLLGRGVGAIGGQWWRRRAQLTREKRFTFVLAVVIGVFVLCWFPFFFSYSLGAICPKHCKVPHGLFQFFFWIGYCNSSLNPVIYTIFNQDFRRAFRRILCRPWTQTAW
# [2] = biological target: Beta-1 adrenergic receptor (Homo sapiens, UniProt P08588); assay type: functional
# [3] = biological target: T2, Gastrin/cholecystokinin type B receptor (Homo sapiens, UniProt P32239)
# T2 sequence (P32239 whole entry): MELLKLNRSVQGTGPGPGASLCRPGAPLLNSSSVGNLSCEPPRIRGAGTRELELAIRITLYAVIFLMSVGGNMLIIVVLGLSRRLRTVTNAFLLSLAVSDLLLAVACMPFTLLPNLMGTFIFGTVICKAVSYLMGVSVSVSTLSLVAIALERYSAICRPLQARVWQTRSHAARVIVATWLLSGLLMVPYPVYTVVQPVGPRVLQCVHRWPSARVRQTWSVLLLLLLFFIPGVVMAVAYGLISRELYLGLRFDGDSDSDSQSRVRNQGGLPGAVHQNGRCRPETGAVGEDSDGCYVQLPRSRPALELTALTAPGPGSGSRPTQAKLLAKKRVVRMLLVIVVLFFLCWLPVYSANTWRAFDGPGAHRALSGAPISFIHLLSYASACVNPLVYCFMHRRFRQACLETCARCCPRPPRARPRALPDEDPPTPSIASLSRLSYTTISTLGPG
# [4] = biological target: Neuronal acetylcholine receptor subunit alpha-4 (Homo sapiens, UniProt P43681)
# [5] = biological target: T3, 5-hydroxytryptamine receptor 1A (Homo sapiens, UniProt P08908); assay type: functional, cell-based
# T3 sequence (P08908 whole entry): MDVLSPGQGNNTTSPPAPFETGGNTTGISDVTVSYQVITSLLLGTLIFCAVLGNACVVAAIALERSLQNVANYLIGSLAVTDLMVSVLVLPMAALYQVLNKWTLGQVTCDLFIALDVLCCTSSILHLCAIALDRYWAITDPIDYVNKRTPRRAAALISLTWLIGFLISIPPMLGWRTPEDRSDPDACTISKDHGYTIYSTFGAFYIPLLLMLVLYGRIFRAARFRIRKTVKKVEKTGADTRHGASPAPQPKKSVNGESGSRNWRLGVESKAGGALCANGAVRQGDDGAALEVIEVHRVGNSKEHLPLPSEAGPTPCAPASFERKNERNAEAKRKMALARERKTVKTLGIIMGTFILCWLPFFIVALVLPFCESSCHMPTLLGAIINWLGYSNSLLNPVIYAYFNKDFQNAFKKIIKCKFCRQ
# [6] = biological target: 5-hydroxytryptamine receptor 2A (Homo sapiens, UniProt P28223); assay type: functional, cell-based
# Glucocorticoid receptor = biological target: T4, Glucocorticoid receptor (Homo sapiens, UniProt P04150)
# T4 sequence (P04150 whole entry): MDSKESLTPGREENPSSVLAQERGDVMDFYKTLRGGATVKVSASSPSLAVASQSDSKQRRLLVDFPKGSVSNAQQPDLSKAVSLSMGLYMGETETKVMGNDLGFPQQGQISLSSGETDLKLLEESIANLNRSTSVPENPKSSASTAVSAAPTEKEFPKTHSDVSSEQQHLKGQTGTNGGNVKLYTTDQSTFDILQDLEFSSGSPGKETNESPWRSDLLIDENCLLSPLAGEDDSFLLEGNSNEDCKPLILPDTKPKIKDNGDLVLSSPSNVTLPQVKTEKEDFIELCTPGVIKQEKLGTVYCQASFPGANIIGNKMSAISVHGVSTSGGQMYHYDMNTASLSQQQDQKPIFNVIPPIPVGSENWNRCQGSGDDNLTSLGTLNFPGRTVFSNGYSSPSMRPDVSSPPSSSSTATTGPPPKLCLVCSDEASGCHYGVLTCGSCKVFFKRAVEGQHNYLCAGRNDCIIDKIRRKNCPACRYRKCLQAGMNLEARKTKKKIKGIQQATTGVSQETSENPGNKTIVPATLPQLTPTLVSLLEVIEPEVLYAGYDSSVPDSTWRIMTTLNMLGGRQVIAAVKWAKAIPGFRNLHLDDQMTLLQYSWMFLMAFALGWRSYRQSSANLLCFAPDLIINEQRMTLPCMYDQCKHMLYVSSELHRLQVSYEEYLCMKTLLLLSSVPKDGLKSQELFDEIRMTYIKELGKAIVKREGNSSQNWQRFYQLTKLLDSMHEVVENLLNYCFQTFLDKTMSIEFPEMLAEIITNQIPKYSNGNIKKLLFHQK
# [7] = biological target: Kappa-type opioid receptor (Homo sapiens, UniProt P41145)
# Thromboxane A2 receptor = biological target: T5, Thromboxane A2 receptor (Homo sapiens, UniProt P21731)
# T5 sequence (P21731 whole entry): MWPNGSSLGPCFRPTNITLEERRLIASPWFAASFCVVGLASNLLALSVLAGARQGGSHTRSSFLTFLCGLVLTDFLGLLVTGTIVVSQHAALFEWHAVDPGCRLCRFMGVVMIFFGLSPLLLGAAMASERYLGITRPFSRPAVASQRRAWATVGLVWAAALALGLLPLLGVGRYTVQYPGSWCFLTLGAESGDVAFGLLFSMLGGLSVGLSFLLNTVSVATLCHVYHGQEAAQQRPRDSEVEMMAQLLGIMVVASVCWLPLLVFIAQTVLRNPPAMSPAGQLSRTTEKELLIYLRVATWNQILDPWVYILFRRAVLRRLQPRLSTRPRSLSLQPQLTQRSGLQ
# Note: assay procedure not described here.
# Beta-1 adrenergic receptor, sequence (P08588 whole entry): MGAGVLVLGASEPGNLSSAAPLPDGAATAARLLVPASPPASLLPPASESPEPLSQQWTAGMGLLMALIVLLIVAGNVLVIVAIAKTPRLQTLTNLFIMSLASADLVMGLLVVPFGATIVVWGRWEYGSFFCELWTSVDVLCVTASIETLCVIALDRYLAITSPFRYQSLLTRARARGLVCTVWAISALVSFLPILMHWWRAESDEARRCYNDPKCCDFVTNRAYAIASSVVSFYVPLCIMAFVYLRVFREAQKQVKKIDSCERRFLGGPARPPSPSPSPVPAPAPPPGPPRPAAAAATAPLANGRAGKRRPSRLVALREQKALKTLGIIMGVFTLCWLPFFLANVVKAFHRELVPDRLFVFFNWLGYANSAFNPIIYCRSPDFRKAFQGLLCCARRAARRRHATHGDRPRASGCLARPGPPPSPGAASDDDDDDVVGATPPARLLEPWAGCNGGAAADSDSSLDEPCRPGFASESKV
# 5-hydroxytryptamine receptor 2A, sequence (P28223 whole entry): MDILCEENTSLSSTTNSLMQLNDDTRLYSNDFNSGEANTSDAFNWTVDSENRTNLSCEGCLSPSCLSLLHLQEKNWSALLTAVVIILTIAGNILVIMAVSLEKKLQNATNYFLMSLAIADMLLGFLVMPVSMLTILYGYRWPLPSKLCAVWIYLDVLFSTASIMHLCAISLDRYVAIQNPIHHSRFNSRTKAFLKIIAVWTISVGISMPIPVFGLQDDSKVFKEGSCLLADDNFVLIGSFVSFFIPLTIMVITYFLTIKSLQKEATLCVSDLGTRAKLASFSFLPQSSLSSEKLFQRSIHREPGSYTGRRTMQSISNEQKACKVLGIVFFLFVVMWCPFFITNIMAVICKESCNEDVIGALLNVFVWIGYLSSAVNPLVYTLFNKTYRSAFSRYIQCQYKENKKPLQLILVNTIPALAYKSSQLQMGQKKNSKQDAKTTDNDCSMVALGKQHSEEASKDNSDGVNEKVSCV
# Neuronal acetylcholine receptor subunit alpha-4, sequence (P43681 whole entry): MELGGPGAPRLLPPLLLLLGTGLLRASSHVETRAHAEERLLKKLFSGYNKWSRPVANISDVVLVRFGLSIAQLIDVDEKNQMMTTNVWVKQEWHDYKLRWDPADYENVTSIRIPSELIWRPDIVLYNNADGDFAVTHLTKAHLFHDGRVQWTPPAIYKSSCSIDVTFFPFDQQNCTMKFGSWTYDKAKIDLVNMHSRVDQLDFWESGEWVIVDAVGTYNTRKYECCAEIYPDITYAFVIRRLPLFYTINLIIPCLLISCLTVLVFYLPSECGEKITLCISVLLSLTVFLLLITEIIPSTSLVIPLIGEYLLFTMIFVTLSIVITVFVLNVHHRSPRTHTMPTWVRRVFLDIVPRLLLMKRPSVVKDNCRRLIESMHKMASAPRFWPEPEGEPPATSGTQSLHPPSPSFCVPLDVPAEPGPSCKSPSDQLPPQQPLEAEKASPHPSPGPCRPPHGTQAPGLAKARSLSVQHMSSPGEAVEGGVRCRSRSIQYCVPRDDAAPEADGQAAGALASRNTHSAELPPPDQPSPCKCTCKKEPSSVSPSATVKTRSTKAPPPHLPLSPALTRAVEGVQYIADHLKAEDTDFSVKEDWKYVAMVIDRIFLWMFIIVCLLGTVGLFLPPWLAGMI
# Kappa-type opioid receptor, sequence (P41145 whole entry): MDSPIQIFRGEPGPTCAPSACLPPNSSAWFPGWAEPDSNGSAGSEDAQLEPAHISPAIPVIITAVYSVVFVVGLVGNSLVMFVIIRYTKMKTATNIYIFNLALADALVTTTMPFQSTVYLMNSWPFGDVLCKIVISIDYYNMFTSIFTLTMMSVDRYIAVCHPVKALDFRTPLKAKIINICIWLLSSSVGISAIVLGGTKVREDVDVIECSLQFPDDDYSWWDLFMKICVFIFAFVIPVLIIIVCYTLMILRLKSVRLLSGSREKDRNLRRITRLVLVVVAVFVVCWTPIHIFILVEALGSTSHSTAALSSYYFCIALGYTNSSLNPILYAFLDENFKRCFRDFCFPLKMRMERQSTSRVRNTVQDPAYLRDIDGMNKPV
# Adenosine receptor A2a, sequence (P29274 whole entry): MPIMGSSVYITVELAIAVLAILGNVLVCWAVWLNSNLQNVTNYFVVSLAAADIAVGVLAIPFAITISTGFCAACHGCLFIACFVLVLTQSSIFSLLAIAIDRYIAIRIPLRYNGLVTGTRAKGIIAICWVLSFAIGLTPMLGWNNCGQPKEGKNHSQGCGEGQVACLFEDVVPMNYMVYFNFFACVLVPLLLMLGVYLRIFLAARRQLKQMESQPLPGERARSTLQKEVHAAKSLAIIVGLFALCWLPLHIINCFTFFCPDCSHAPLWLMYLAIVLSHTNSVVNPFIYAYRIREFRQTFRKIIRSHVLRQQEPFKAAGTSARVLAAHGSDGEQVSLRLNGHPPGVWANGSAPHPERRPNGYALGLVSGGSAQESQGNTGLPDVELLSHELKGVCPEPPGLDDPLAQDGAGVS
SMILES,AC50 (Adenosine receptor A2a) [µM],AC50 [1] [µM],AC50 [2] [µM],AC50 [3] [µM],AC50 [4] [µM],AC50 [5] [µM],AC50 [6] [µM],AC50 (Glucocorticoid receptor) [µM],AC50 [7] [µM],AC50 (Thromboxane A2 receptor) [µM]
O=C(O)CCCCCCNC1c2ccccc2CCc2ccccc21 [AMINEPTINE],> 30,> 30,> 30,> 30,> 30,> 30,> 30,> 30,> 30,> 30
NCC(=O)CCC(=O)O [AMINOLEVULINIC ACID],> 30,> 30,> 30,> 30,> 30,> 30,> 30,> 30,> 30,> 30
COc1ccccc1OCCNCC(O)c1ccc(C)c(S(N)(=O)=O)c1 (stereo not given) [AMOSULALOL],> 30,6.9,0.06,> 30,> 30,> 30,7.7,> 30,> 30,> 30
COC(=O)C1=C(C)NC(C)=C(C(=O)OC2CCCN(Cc3ccccc3)C2)C1c1cccc([N+](=O)[O-])c1 (stereo not given) [BENIDIPINE],> 30,> 30,> 30,> 30,> 30,> 30,> 30,> 30,1.5,> 30
CO/N=C(\C(=O)N[C@@H]1C(=O)N2C(C(=O)O)=C(CSc3nnnn3C)CS[C@H]12)c1csc(N)n1 [CEFMENOXIME],> 30,,> 30,> 30,> 30,> 30,> 30,> 30,,
CCc1c(Cl)c(O)c(Cl)c(O)c1C(=O)O[C@H]1[C@H](O)[C@H](OC)[C@H](OC/C2=C\C=C\C[C@H](O)/C(C)=C/[C@H](CC)[C@@H](O[C@@H]3OC(C)(C)[C@@H](OC(=O)C(C)C)[C@H](O)[C@@H]3O)/C(C)=C/C(C)=C/C[C@@H]([C@@H](C)O)OC2=O)O[C@@H]1C [FIDAXOMICIN],> 30,> 10,> 10,7.9,> 10,,18,> 30,> 10,> 30
CO[C@@H]1[C@@H](O[C@@H]2O[C@H](C)[C@@H](O[C@H]3C[C@@](C)(O)[C@@H](OC(=O)CC(C)C)[C@H](C)O3)[C@H](N(C)C)[C@H]2O)[C@@H](CC=O)C[C@@H](C)[C@@H](O)/C=C/C=C/C[C@@H](C)OC(=O)C[C@H]1OC(C)=O [JOSAMYCIN],> 10,> 10,> 10,,> 10,> 10,> 10,> 10,> 10,> 10
CC(C)OC(=O)CCC/C=C\C[C@@H]1[C@@H](CC[C@@H](O)CCc2ccccc2)[C@H](O)C[C@@H]1O [LATANOPROST],> 30,> 30,> 30,> 30,> 30,> 30,> 30,> 30,> 30,
C[C@H](N)[C@H](O)c1cccc(O)c1 [METARAMINOL],> 10,> 10,14.3,,> 10,> 10,> 10,> 10,> 10,> 10
CCC1(CC)C(=O)NCC(C)C1=O (stereo not given) [METHYPRYLON],> 30,> 30,> 30,> 30,> 30,> 30,> 30,> 30,> 30,
O=C(O)[C@H](CC(=O)N1C[C@H]2CCCC[C@H]2C1)Cc1ccccc1 [MITIGLINIDE],> 10,> 10,> 10,,> 10,> 10,> 10,> 10,> 10,> 10
OC(CNCC(O)C1CCc2cc(F)ccc2O1)C1CCc2cc(F)ccc2O1 (stereo not given) [NEBIVOLOL],> 30,4.5,,> 30,> 30,1.6,7.1,> 30,10,> 30
COc1ccc2c3c1O[C@H]1C(=O)CC[C@@]4(O)[C@@H](C2)N(C)CC[C@]314 [OXYCODONE],> 30,> 30,> 30,> 30,> 30,> 30,> 30,> 30,,> 30
COC(=O)[C@H]1[C@H]2C[C@@H]3c4[nH]c5cc(OC)ccc5c4CCN3C[C@H]2C[C@@H](OC(=O)/C=C/c2cc(OC)c(OC)c(OC)c2)[C@@H]1OC [RESCINNAMINE],> 30,> 10,> 10,,> 10,> 10,> 10,> 10,> 30,> 10
C=CCC1(C(C)CC)C(=O)NC(=O)NC1=O (stereo not given) [TALBUTAL],> 10,> 10,> 10,,> 10,> 10,> 10,> 10,> 10,> 10
O=C(NCCNCC(O)COc1ccc(O)cc1)N1CCOCC1 (stereo not given) [XAMOTEROL],> 30,> 30,,> 30,> 30,> 30,> 30,> 30,> 30,> 30
C[C@H](CSC(=O)c1ccccc1)C(=O)N1C[C@@H](Sc2ccccc2)C[C@H]1C(=O)O [ZOFENOPRIL],> 10,> 10,> 10,,> 10,> 10,> 10,> 10,> 10,> 10
